The values below come from patent publication US5137890A, “4-phenyl tetrahydropyrido(4,3-d)pyrimidines” (Ortho Pharmaceutical Corporation, priority 1990, dated 1992).

The test system of assay [1] is Ethanol-Induced Lesions. Nature of the assay: Cytoprotection: inhibition of ethanol-induced lesions. In kind it is in vivo, male, Charles River rats. To be noted: Rattus norvegicus, oral, 1 hour before 50% ethanol. On the procedure:
Using the procedures of Robert, A. et al., Gastroenterology 77, 433(1979), male, Charles River rats weighing between 140 and 220 g were fasted overnight, but allowed water ad libitum. The rats were, however, deprived of water during the experiment. The rats were weighed and pretreated orally with the example compounds at the doses shown below in Table 1. One hour later, the necrotizing agent, 50% ethanol, was administered orally in a dose volume of 1 ml/animal. After an additional hour, the rats were sacrificed with CO2, the stomachs removed, inflated with distilled water, opened along the greater curvature and laid out on a flat surface. The presence of mucosal bleeding was noted and after wiping off the mucosa, the presence of submucosal bleeding was also noted. The incidence of lesions in the mucosa and the submucosa was statistically analyzed by the method of Chisquares using Yates correction.

Assay [2] has as its system 80 mg/kg aspirin. Nature of the assay: Cytoprotection vs. 80 mg/kg aspirin (footnotes of Table 1). In kind it is in vivo.

Counter-ions that a name gives are not always drawn.

For orientation: inhibition in vivo means the change of the read-out against control, counted positive when it falls. As a reminder, the ED50 is the midpoint of the dose-response relation.

Compound `CCN1CCc2nc(Nc3ccc(C(F)(F)F)cc3)nc(-c3ccc(Cl)cc3)c2C1` [Example 5, 4-(4-chlorophenyl)-6-ethyl-2-(4-trifluromethylphenylamino)-5,6,7,8-tetrahydropyrido[4,3-d]pyrimidine dihydrochloride monohydrate] came in with an inhibition in vivo at 10 mg/kg in assay [1] of 20%. Take `CCNc1nc2c(c(-c3ccc(Cl)cc3)n1)CN(Cc1ccccc1)CC2` [Example 10, 6-Benzyl-4-(4-chlorophenyl)-2-ethylamino-5,6,7,8-tetrahydropyrido[4,3-d]pyrimidine]: 10 mg/kg produced 20% inhibition in vivo in assay [1]. Consider `CCNc1nc2c(c(-c3ccc(F)cc3)n1)CN(C(C)=O)CC2` [Example 7, 6-Acetyl-4-(4-fluorophenyl)-2-ethylamino-5,6,7,8-tetrahydropyrido[4,3-d]pyrimidine], for which the ED50 in assay [1] worked out at 5 mg/kg. With `CC(=O)N1CCc2nc(N)nc(-c3ccc(Cl)cc3)c2C1` [Example 13, 6-Acetyl-2-amino-4-(4-chlorophenyl)-5,6,7,8-tetrahydropyrido[4,3-d]pyrimidine], the ED50 in assay [1] is ~3 mg/kg.

Take `Nc1nc2c(c(-c3ccc(F)cc3)n1)CNCC2` [Example 16, 2-amino-4-(4-fluorophenyl)-5,6,7,8-tetrahydropyrido[4,3-d]pyrimidine dihydrochloride hemihydrate]: the inhibition in vivo at 10 mg/kg in assay [1] was 80%. In assay [1], `CC(=O)N1CCc2nc(N)nc(-c3ccc(F)cc3)c2C1` [Example 14, 6-Acetyl-2-amino-4-(4-fluorophenyl)-5,6,7,8-tetrahydropyrido[4,3-d]pyrimidine Monohydrate] gave an inhibition in vivo at 10 mg/kg of 80%. `CC(=O)N1CCc2nc(C)nc(-c3ccc(F)cc3)c2C1` [Example 2, 6-Acetyl-4-(4-fluorophenyl)-2-methyl-5,6,-7,8-tetrahydropyrido[4,3-d]pyrimidine Monohydrochloride Monohydrate] came in with an inhibition in vivo at 10 mg/kg in assay [1] of 100%. Moreover, the “8/10 vs. 80 mg/kg aspirin” value in assay [2] (at 20 mg/kg vs. 80 mg/kg aspirin) is given as 8/10. `CCN1CCc2nc(N)nc(-c3ccc(Cl)cc3)c2C1.Cl.Cl` [Example 17, 2-Amino-4-(4-chlorophenyl)-6-ethyl-5,6,7,8-tetrahydropyrido[4,3-d]pyrimidine Dihydrochloride]: the figures for the ED50 in assay [1] and in assay [2] were 3.2 mg/kg and 14.5 mg/kg, respectively. With `CCN(CC)CCN1CCc2nc(N)nc(-c3ccc(F)cc3)c2C1` [Example 26, 2-Amino-6-(2-diethylaminoethyl)-4-(4-fluorophenyl)-5,6,7,8-tetrahydropyrido[4,3-d]pyrimidine Trihydrochloride], at 10 mg/kg the inhibition in vivo in assay [1] was 80%. As for `CC(=O)N1CCc2nc(N)nc(-c3ccccc3)c2C1.O` [Example 23, 6-Acetyl-2-amino-4-phenyl-5,6,7,8-tetrahydropyrido[4,3-d]pyrimidine Monohydrate], the ED50 in assay [1] stood at 2.3 mg/kg; in assay [2], 9.5 mg/kg.

In the case of `CCCN1CCc2nc(N)nc(-c3ccc(Cl)cc3)c2C1` [Example 19, 2-Amino-4-(4-chlorophenyl)-6-propyl-5,6,7,8-tetrahydropyrido[4,3-d]-pyrimidine Dihydrochloride 1/4 Hydrate], it took a dose of 2.7 mg/kg to reach the 50% effect level in assay [1] (ED50). For the compound `CC(=O)N1CCc2nc(C)nc(-c3ccc(Cl)cc3)c2C1` [Example 1, 6-Acetyl-4-(4-chlorophenyl)-2-methyl-5,6,7,8-tetrahydropyrido[4,3-d]pyrimidine], the inhibition in vivo at 10 mg/kg in assay [1] came out at 20%. Same read-out and setting: next, `Nc1nc2c(c(-c3ccc(Cl)cc3)n1)CNCC2` [Example 15, 2-Amino-4-(4-chlorophenyl)-5,6,7,8-tetrahydropyrido[4,3-d]pyrimidine Dihydrochloride]: 40%. As to `C=CCN1CCc2nc(N)nc(-c3ccc(Cl)cc3)c2C1.Cl.Cl` [Example 20, 6-Allyl-2-amino-4-(4-chlorophenyl)-5,6,7,8-tetrahydropyrido[4,3-d]pyrimidine Dihydrochloride], in assay [1], the ED50 stood at 7.9 mg/kg.

`C=CCN1CCc2nc(N)nc(-c3ccc(F)cc3)c2C1.Cl.Cl` [Example 21, 6-Allyl-2-amino-4-(4-fluorophenyl)-5,6,7,8-tetrahydropyrido[4,3-d]pyrimidine Dihydrochloride]: the ED50 in assay [1] turned out to be 5 mg/kg. With `CCN1CCc2nc(N)nc(-c3ccc(F)cc3)c2C1` [Example 18, 2-Amino-4-(4-fluorophenyl)-6-ethyl-5,6,7,8-tetrahydropyrido[4,3-d]pyrimidine], in assay [1], the ED50 was 3.7 mg/kg. Further, the “8/10 v. 80 mg/kg aspirin” value in assay [2] (at 40 mg/kg v. 80 mg/kg aspirin) is 8/10. In turn, `C=CCN1CCc2nc(NCC)nc(-c3ccc(Cl)cc3)c2C1` [Example 9, 6-Allyl-4-(4-chlorophenyl)-2-ethylamino-5,6,7,8-tetrahydropyrido[4,3-d]pyrimidine] had an inhibition in vivo at 10 mg/kg in assay [1] of 80%. Same read-out and setting: under `CCCN(CCC)c1nc2c(c(-c3ccc(C)cc3)n1)CN(C(C)=O)CC2` [Example 25, 6-Acetyl-5,6,7,8-tetrahydro-4-(4-methylphenyl) -2-dipropylaminopyrido[4,3-d]-pyrimidine Monohydrate] stands 40%; under `CN1CCc2nc(N)nc(-c3ccc(Cl)cc3)c2C1` [Example 22, 2-Amino-4-(4-chlorophenyl)-6-methyl-5,6,7,8-tetrahydropyrido[4,3-d]pyrimidine 1/4 Hydrate], 100%. As to `CN(C)CCCN1CCc2nc(N)nc(-c3ccc(F)cc3)c2C1` [Example 27, Trihydrochloride], in assay [1], the ED50 is ~7 mg/kg. On to `CC(=O)N1CCc2nc(C)nc(-c3ccc(C)cc3)c2C1` [Example 24, 6-Acetyl-2-methyl-4-(4-methylphenyl)-5,6,7,8-tetrahydropyrido[4,3-d]pyrimidine Monohydrate], for which 10 mg/kg produced 40% inhibition in vivo in assay [1]. For `CCNc1nc2c(c(-c3ccc(F)cc3)n1)CNCC2.Cl` [Example 12, 2-Ethylamino-4-(4-fluorophenyl)5,6,7,8-tetrahydropyrido[4,3-d]pyrimidine Monohydrochloride], it took a dose of 4.7 mg/kg to reach the 50% effect level in assay [1] (ED50). In addition, in assay [2] (at 10 mg/kg vs. 80 mg/kg aspirin), the “8/10 vs. 80 mg/kg aspirin” value was 8/10. Regarding `CCNc1nc2c(c(-c3ccc(Cl)cc3)n1)CN(CC)CC2` [Example 11, 4-(4-Chlorophenyl)-6-ethyl-2-ethylamino-5,6,7,8-tetrahydropyrido[4,3-d]pyrimidine], in assay [1], the ED50 stood at 9.5 mg/kg.
